The source of these data is patent US20220332774A1, “THERAPEUTIC MITOCHONDRIAL PEPTIDES” (priority 2019, published 2022).

The test system of assay [1] is 3T3-L1 Mouse Adipocytes. As to the kind of experiment: Free fatty acid levels in cultured 3T3-L1 mouse adipocytes (isoproterenol stimulated). Type of assay: cell-based. The settings on record: free fatty acid in medium; 5 μM peptide, 20-22 h pre-incubation then 3 h with 0.1 nM isoproterenol; isoproterenol alone = 100%. An outline of the steps:
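3T3-L1 cells differentiated 12 days, insulin withdrawn, then peptides added on day 13 at 5 μM (0.1% DMSO) for 20-22 h at 37° C. After 3 h in assay buffer, medium free fatty acids read at 540 nm. Values expressed as percent of 0.1 nM isoproterenol-alone control.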

In assay [2] the test system is C2C12 Cells. As to the kind of experiment: Glucose utilization in cultured C2C12 cells (myotubes). The conditions noted are these: glucose concentration in medium relative to untreated cells; 5 μM peptide, 22 h. Type of assay: cell-based, mouse. The gist of the method:
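Differentiated mouse myotubes (5 days in 2% horse serum) serum-starved 5 h, then treated 22 h at 37 °C with peptide at 5 μM final (0.1% DMSO) in low-glucose (1 g/L) DMEM. Glucose remaining in medium measured colorimetrically at 570 nm. Expressed as percent of untreated control, from 2–3 experiments in triplicate.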

For assay [3], the system named is H4-IIE Cells. The assay is described as follows: Glucose production in cultured H4-IIE cells. In kind it is cell-based, rat. The settings on record: glucose concentration in medium relative to untreated cells; 5 μM peptide, 24 h. An outline of the steps: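 Rat H4-IIE hepatoma cells primed overnight in glucose-free DMEM with 2 mM pyruvate and 10 mM lactate, then treated 24 h at 37 °C with 5 μM peptide (0.1% DMSO; concentration assumes ~2000 Da). Medium glucose measured colorimetrically at 570 nm. Values are percent of untreated-cell glucose production; 0.5-1 nM insulin served as inhibitor reference.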

Regarding 131 (MTELLTPNWTNLSPY) [compound 131], the “Percent of Isoproterenol Control Activity” value in assay [1] was 110%. Also, the “Percent of Control Activity” value is reported as 107% in assay [2] and 97% in assay [3].

As for 133 (MTLGHNMIYLHTS) [compound 133], the “Percent of Isoproterenol Control Activity” value in assay [1] turned out to be 107%. For the same substance, the “Percent of Control Activity” value in assay [2] stood at 100%; in assay [3], 91%.

For the substance 134 (MTNIFGVWAR) [compound 134], the “Percent of Isoproterenol Control Activity” value in assay [1] came out at 111%. For the same substance, the “Percent of Control Activity” value in assay [2] worked out at 101%; in assay [3], 92%.

As to “135 (MTNPENQNERKSVRFIHCPHNP) [compound 135]”, in assay [1], the “Percent of Isoproterenol Control Activity” value is 127%. Also, the “Percent of Control Activity” value in assay [2] came to 109%; in assay [3], 93%.

Consider 136 (MTNTLNSIHPPLP) [compound 136], for which the “Percent of Isoproterenol Control Activity” value in assay [1] stood at 124%. The “Percent of Control Activity” value in assay [2] was found to be 99%; in assay [3] it was 94%.

For “137 (MTSLHNSFYSKDTSLRTPLMTP) [compound 137]”, the “Percent of Isoproterenol Control Activity” value in assay [1] is listed as 115%. The results for the “Percent of Control Activity” value in assay [2] and in assay [3] were 116% and 96%, respectively.

Consider “138 (MTSPKIQNNNTPDHTANNQY) [compound 138]”, for which the “Percent of Isoproterenol Control Activity” value in assay [1] amounted to 111%. Further, the “Percent of Control Activity” value is reported as 115% in assay [2] and 92% in assay [3].

For 139 (MTWPTEQVTLGMTAQSYS) [compound 139], in assay [1], the “Percent of Isoproterenol Control Activity” value is 91%. Also, the “Percent of Control Activity” value in assay [2] was 100%; in assay [3], 97%.

As for “140 (MTYSPEQSQLQYMHQQTMFNQ) [compound 140]”, the “Percent of Isoproterenol Control Activity” value in assay [1] came to 100%. For the same substance, the results for the “Percent of Control Activity” value in assay [2] and in assay [3] were 91% and 97%, respectively.

Take 141 (MVEGWLLYLLVSMG) [compound 141]: the “Percent of Isoproterenol Control Activity” value in assay [1] came to 96%. Besides, the “Percent of Control Activity” value in assay [2] is 97%; in assay [3], 103%.

Take 142 (MVEVGYNVVRVV) [compound 142]: the “Percent of Isoproterenol Control Activity” value in assay [1] stood at 97%. The entries for the “Percent of Control Activity” value in assay [2] and in assay [3] were 95% and 103%, respectively.

For the substance “143 (MVGYLIPVWVLAIVCSDMLKPLS) [compound 143]”, the “Percent of Isoproterenol Control Activity” value in assay [1] was 107%. The “Percent of Control Activity” value in assay [2] is 98%; in assay [3], 111%.

“144 (MVIICFEVSLISHCWVVISRLLM) [compound 144]”: the “Percent of Isoproterenol Control Activity” value in assay [1] is listed as 96%. Further, the “Percent of Control Activity” value in assay [2] and in assay [3] was 105% each time.

With 145 (MVKPHLQNASI) [compound 145], the “Percent of Isoproterenol Control Activity” value in assay [1] is reported as 94%. Further, the entries for the “Percent of Control Activity” value in assay [2] and in assay [3] were 103% and 102%, respectively.

In the case of “146 (MVLEFGLVGYFLLGGGSGWV) [compound 146]”, the “Percent of Isoproterenol Control Activity” value in assay [1] was 97%. In addition, the “Percent of Control Activity” value in assay [2] amounted to 106%; in assay [3] it was 99%.

Consider 147 (MVLFLLGMVG) [compound 147], for which the “Percent of Isoproterenol Control Activity” value in assay [1] was found to be 99%. The “Percent of Control Activity” value in assay [2] is 107%; in assay [3], 98%.

In the case of “148 (MVLNLRVHRLRRTNLQLLHTSPIIP) [compound 148]”, in assay [1], the “Percent of Isoproterenol Control Activity” value is reported as 103%. Moreover, the “Percent of Control Activity” value in assay [2] worked out at 103%; in assay [3] it was 109%.

With 149 (MVLSSPPIFRMSCSLL) [compound 149], the “Percent of Isoproterenol Control Activity” value in assay [1] is recorded as 100%. In addition, the “Percent of Control Activity” value in assay [2] stood at 100%; in assay [3], 97%.

For 150 (MVLWWFGGSG) [compound 150], the “Percent of Isoproterenol Control Activity” value in assay [1] was found to be 94%. For the same substance, the “Percent of Control Activity” value is 102% in assay [2] and 87% in assay [3].

For the substance 151 (MVNGRRTSVGV) [compound 151], the “Percent of Isoproterenol Control Activity” value in assay [1] was determined as 81%. The “Percent of Control Activity” value is reported as 95% in assay [2] and 90% in assay [3].

Turning to 152 (MVRMLLVQWW) [compound 152], the “Percent of Isoproterenol Control Activity” value in assay [1] worked out at 105%. Further, the “Percent of Control Activity” value came to 110% in assay [2] and 89% in assay [3].

For 153 (MVSMMTSMGM) [compound 153], the “Percent of Isoproterenol Control Activity” value in assay [1] stood at 93%. Moreover, the “Percent of Control Activity” value is reported as 104% in assay [2] and 91% in assay [3].

Turning to 154 (MVSSGDWYSWCE) [compound 154], the “Percent of Isoproterenol Control Activity” value in assay [1] is on record as 89%. In addition, the “Percent of Control Activity” value in assay [2] worked out at 107%; in assay [3], 98%.

As to “155 (MVVCMVITFIWSCTKIFGA) [compound 155]”, the “Percent of Isoproterenol Control Activity” value in assay [1] came out at 97%. Besides, the “Percent of Control Activity” value in assay [2] was determined as 107%; in assay [3] it was 95%.

Consider “156 (MVVHWMSGVGLPWLWGVGV) [compound 156]”, for which, in assay [1], the “Percent of Isoproterenol Control Activity” value was 97%. Moreover, the results for the “Percent of Control Activity” value in assay [2] and in assay [3] were 85% and 106%, respectively.

With “157 (MVVKGPLSEGGHPWGREGIWL) [compound 157]”, the “Percent of Isoproterenol Control Activity” value in assay [1] worked out at 106%. Also, the “Percent of Control Activity” value in assay [2] stood at 102%; in assay [3] it was 109%.

In the case of 158 (MWEEAGRMSEGCLG) [compound 158], the “Percent of Isoproterenol Control Activity” value in assay [1] is 96%. The results for the “Percent of Control Activity” value in assay [2] and in assay [3] were 106% and 127%, respectively.

In the case of 159 (MWGVSDMLVFLEV) [compound 159], the “Percent of Isoproterenol Control Activity” value in assay [1] stood at 100%. Also, the results for the “Percent of Control Activity” value in assay [2] and in assay [3] were 102% and 111%, respectively.

For 160 (MWLGVGLGWVG) [compound 160], the “Percent of Isoproterenol Control Activity” value in assay [1] is 102%. In addition, the entries for the “Percent of Control Activity” value in assay [2] and in assay [3] were 94% and 102%, respectively.

Take 161 (MWLIEEYAMSDF) [compound 161]: the “Percent of Isoproterenol Control Activity” value in assay [1] came out at 99%. Moreover, the “Percent of Control Activity” value in assay [2] stood at 103%; in assay [3], 114%.

In the case of 162 (MWLVLWLWML) [compound 162], the “Percent of Isoproterenol Control Activity” value in assay [1] turned out to be 106%. The “Percent of Control Activity” value in assay [2] was 103%; in assay [3] it was 113%.

Take 163 (MWMPPTLPHIR) [compound 163]: the “Percent of Isoproterenol Control Activity” value in assay [1] was determined as 87%. Further, the “Percent of Control Activity” value in assay [2] is recorded as 105%; in assay [3], 110%.

In the case of 164 (MWNDLLQCSEP) [compound 164], the “Percent of Isoproterenol Control Activity” value in assay [1] turned out to be 116%. Besides, the “Percent of Control Activity” value in assay [2] was found to be 102%; in assay [3] it was 109%.

As for 165 (MWRVLGALWW) [compound 165], the “Percent of Isoproterenol Control Activity” value in assay [1] is given as 108%. For the same substance, the “Percent of Control Activity” value in assay [2] is reported as 95%; in assay [3], 125%.

Take “166 (MWSHPSHHSTINITNKWLL) [compound 166]”: in assay [1], the “Percent of Isoproterenol Control Activity” value is listed as 96%. Besides, the “Percent of Control Activity” value in assay [2] and in assay [3] was 105% each time.
